Test system: yeast cultures
Assay: effect of 4-coumaric acid at different concentrations on yeast cultures
Format: cell-based, S. cerevisiae
Settings: strains CNFS109 and CNFS110, 48 hours, 30 °C, FIG. 1
Method: The strains of Example 1 were tested in microcultures with 500 mg/L of 4-coumaric acid fed 24 hours post inoculation. CNFS109 and CNFS110 were inoculated into 50 ml of synthetic drop out medium without uracil (Sigma-Aldrich, St. Louis, Missouri) and incubated overnight under shaking conditions. Saturated culture was dispensed into individual wells in 24 well plates that contained 2 ml of synthetic drop out medium without uracil. 4-coumaric acid dissolved in acidified ethanol (20 g/L stock, in ethanol : water : HCl=50:49:1) was added to each well, to form media having 4-coumaric concentrations of 0 mg/L, 100 mg/L, 500 mg/L, 1000 mg/L, and 2000 mg/L, respectively. All experiments were performed in triplicate. The cultures were incubated under shaking for 48 hours (250 rpm, 30 ° C.).
The bar graph of FIG. 1 illustrates the effect of 4-coumaric acid at different concentrations on yeast cultures. […] Due to the toxicity associated with high concentrations of 4-coumaric acid which inhibited yeast from growing and metabolizing, resveratrol bioconversion was only observed when 4-coumaric was added to the yeast culture at relatively lower concentrations (FIG. 2).

O=C(O)/C=C/c1ccc(O)cc1 [4-coumaric acid]
survival rate of yeast culture (1 g/L or 2 g/L added to the culture): declined | impact due to 4-coumaric acid toxicity on yeast cultures (concentration of up to 500 mg/L): little or no impact

— patent publication US20220243230A1, “BIOCONVERSION OF 4-COUMARIC ACID TO RESVERATROL” (Conagen Inc., priority 2022, published 2022)
